Measured values taken from patent publication US20210290648A1, “Potentiation of B-Lactam Antibiotics and B-Lactam/B-Lactamase Inhibitor Combinations Against Multidrug and Extensively Drug-Resistant Pseudomonas Aeruginosa Using Non-Ribosomal Tobramycin-Cyclam Conjugates” (University of Manitoba, priority 2018, published 2021).
Like-named read-outs stand apart in the source and are kept apart here.

Key:
[1] = test system: WT P. aeruginosa PAO1; test: Checkerboard combination study / MIC; format: cell-based, Pseudomonas aeruginosa; conditions: for MIC of antibiotic + Compound 2 in PAO1: + compound 2 ≤8.7 μM; for MIC: Pseudomonas aeruginosa; for FICI in the presence of ≤10 μM of 1: antibiotic + compound 1; for FICI in the presence of ≤10 μM of 1 / MIC of Antibiotics in the presence of ≤10 μM of 1 / FICI in the presence of ≤10 μM of 2 / MIC of Antibiotics in the presence of ≤10 μM of 2 / FICI in the presence of ≤10 μM of 3 / MIC of Antibiotics in the presence of ≤10 μM of 3: WT PAO1; for MIC of Antibiotics in the presence of ≤10 μM of 1: antibiotic + compound 1 ≤10 μM; for FICI in the presence of ≤10 μM of 2: antibiotic + compound 2; for MIC of Antibiotics in the presence of ≤10 μM of 2: antibiotic + compound 2 ≤10 μM; for FICI in the presence of ≤10 μM of 3: antibiotic + compound 3; for MIC of Antibiotics in the presence of ≤10 μM of 3: antibiotic + compound 3 ≤10 μM; for MIC of antibiotic alone in PAO1: PAO1 wild-type (Table 4)
[2] = test system: PA 101885; test: Checkerboard combination study / MIC; format: cell-based, Pseudomonas aeruginosa; conditions: for MICCombination (antibiotic): MIC of antibiotic combined with compound 2; for FICI: antibiotic + compound 2; for MICAntibiotic: antibiotic alone
[3] = test system: PA 259; test: Checkerboard combination study / MIC; format: cell-based, Pseudomonas aeruginosa; conditions: for MICCombination (antibiotic): MIC of antibiotic combined with compound 2; for FICI: antibiotic + compound 2; for MICAntibiotic: antibiotic alone
[4] = test system: PA 260; test: Checkerboard combination study / MIC; format: cell-based, Pseudomonas aeruginosa; conditions: for MICCombination (antibiotic): MIC of antibiotic combined with compound 2; for FICI: antibiotic + compound 2; for MICAntibiotic: antibiotic alone
[5] = test system: PA 264; test: Checkerboard combination study / MIC; format: cell-based, Pseudomonas aeruginosa; conditions: for MICCombination (antibiotic): MIC of antibiotic combined with compound 2; for FICI: antibiotic + compound 2; for MICAntibiotic: antibiotic alone; for FICAntibiotic: with compound 2
[6] = test system: PA 91433; test: Checkerboard combination study / MIC; format: cell-based, Pseudomonas aeruginosa; conditions: PA 91433; for MICCombination (antibiotic): MIC of antibiotic combined with compound 2; for FICI: antibiotic + compound 2; for MICAntibiotic: antibiotic alone; for FICAntibiotic: with compound 2
[7] = test system: MDR/XDR P. aeruginosa clinical isolates; test: MIC and checkerboard, panel of clinical isolates; format: cell-based, Pseudomonas aeruginosa; conditions: antibiotic + compound 2 (8.7 μM); resistant P. aeruginosa isolates
[8] = test system: Galleria mellonella larvae; test: Galleria mellonella tolerability study; conditions: 100 mg/kg and 200 mg/kg injected alone; after 48 h
Description: In vitro and in vivo discordances have been observed in antimicrobial chemotherapy, thus, therapeutic efficacy may not necessarily be reliably extrapolated based on in vitro data alone. […] Colistin (100 mg/kg), an antibiotic well known for its toxicity towards eukaryotes, served as a positive control for this experiment while PBS served as negative control. […] Survivability was scored for a total of 4 days.
In vivo larvae-infection model. In vivo synergistic effects were determined using Galleria mellonella infection model, as previously described (20). Briefly, worms were purchased from The Worm Lady® Live Feeder (ON, Canada), stored in their natural habitat at 16° C., and used within 10 days of delivery. The worms (average weight of 250 mg) were used for tolerability and efficacy studies. Tolerability study was performed by injecting 10 μL of antimicrobial agents only at concentrations equivalent to 100 mg/kg or 200 mg/kg. The worms (ten in each group) were incubated at 37° C. and monitored for 96 h. […] Overnight grown culture of respective MDR P. aeruginosa isolate was standardized to 0.5 McFarland standard and diluted in PBS to a final concentration of […]. 10 μL of this solution (5 CFU) was injected into each worm and incubated for 3 h at 37° C. […] Worms treated with 10 μL PBS or high concentrations of test antibiotics served as negative and positive control, respectively. The worms were incubated at 37° C. in Petri dishes lined with filter paper and scored for survivability every 6 h for up to 48 h. This experiment was repeated to give a total of thirty worms (n=30) in each case. Survival data curves were plotted using Kaplan-Meier survival analysis.

[9] = test system: MDR PA101885-challenged larvae; test: Galleria mellonella infection model, efficacy; format: in vivo; conditions: aztreonam 25 mg/kg single dose; after 24 h
Description: In vivo synergistic effects were determined using Galleria mellonella infection model, as previously described (20). Briefly, worms were purchased from The Worm Lady® Live Feeder (ON, Canada), stored in their natural habitat at 16° C., and used within 10 days of delivery. The worms (average weight of 250 mg) were used for tolerability and efficacy studies. Tolerability study was performed by injecting 10 μL of antimicrobial agents only at concentrations equivalent to 100 mg/kg or 200 mg/kg. The worms (ten in each group) were incubated at 37° C. and monitored for 96 h. For efficacy studies, the virulence and bacterial load required to kill 100% of the worms within 12-18 h (with no treatment) was first determined, which is approximately 5 CFU. Overnight grown culture of respective MDR P. aeruginosa isolate was standardized to 0.5 McFarland standard and diluted in PBS to a final concentration of 5×10^2CFU/mL. 10 μL of this solution (5 CFU) was injected into each worm and incubated for 3 h at 37° C. […] Worms treated with 10 μL PBS or high concentrations of test antibiotics served as negative and positive control, respectively. The worms were incubated at 37° C. in Petri dishes lined with filter paper and scored for survivability every 6 h for up to 48 h. This experiment was repeated to give a total of thirty worms (n=30) in each case. Survival data curves were plotted using Kaplan-Meier survival analysis.

[10] = test system: PA 262; test: Checkerboard combination study / MIC; format: cell-based, Pseudomonas aeruginosa
[11] = test system: PA 114228; test: Checkerboard combination study / MIC; format: cell-based, Pseudomonas aeruginosa
[12] = MIC of antibiotic combined with compound 2

Compound | MIC of antibiotic + Compound 2 in PAO1 [1] [µg/mL] | FICI in the presence of ≤10 μM of 1 [1] | MIC of Antibiotics in the presence of ≤10 μM of 1 [1] [µg/mL] | FICI in the presence of ≤10 μM of 2 [1] | MIC of Antibiotics in the presence of ≤10 μM of 2 [1] [µg/mL] | FICI in the presence of ≤10 μM of 3 [1] | MIC of Antibiotics in the presence of ≤10 μM of 3 [1] [µg/mL] | MIC of antibiotic alone in PAO1 ([1]; antibiotic alone) [µg/mL] | MICCombination (antibiotic) [2] [µg/mL] | FICI [2] | MICAntibiotic [2] [µg/mL] | MICCombination (antibiotic) [3] [µg/mL] | FICI [3] | MICAntibiotic [3] [µg/mL] | MICCombination (antibiotic) [4] [µg/mL] | FICI [4] | MICAntibiotic [4] [µg/mL] | MICCombination (antibiotic) [5] [µg/mL] | FICI [5] | MICAntibiotic [5] [µg/mL] | other results
C[C@H]1[C@H](NC(=O)/C(=N\OC(C)(C)C(=O)O)c2csc(N)n2)C(=O)N1S(=O)(=O)O [Aztreonam] | 0.25 | 0.13 | 0.5 | 0.07 | 0.25 | 0.14 | 0.5 | 4 | 0.5 | <0.09 | 16 | 4 | <0.19 | 32 | 8 | <0.19 | 64 | 16 | <0.28 | 64 | MIC ([1]; PAO1, 18 h, antibiotic alone, WT PAO1 (Table 2), read-out: MIC alone): 4 µg/mL; MIC ([1]; PAO1, FIG. 7 legend, read-out: MIC against WT PAO1): 0.004 µg/mL; MIC ([1]; PAO1, time-kill study text and FIG. 7 legend, read-out: MIC against WT PAO1): 4 µg/mL; FICAntibiotic ([2]; with compound 2): 0.031; FICAntibiotic [5]: 0.250; MICCombination (antibiotic) [6]: 512 µg/mL; FICI [6]: <1.06; MICAntibiotic [6]: 512 µg/mL; FICAntibiotic [6]: 1.000; resistant isolates reaching CLSI clinical breakpoint [7]: seven out of nine; survival of larvae [8]: 100%; survival of larvae [9]: 50%
CC(C)(O/N=C(\C(=O)N[C@@H]1C(=O)N2C(C(=O)[O-])=C(C[n+]3ccccc3)CS[C@H]12)c1csc(N)n1)C(=O)O [Ceftazidime] | 0.5 | 0.25 | 0.5 | 0.13 | 0.25 | 0.25 | 0.5 | 4 | 1 | <0.16 | 8 | 64 | <0.19 | 512 | 16 | <0.52 | 32 | 32 | <0.28 | 128 | MIC ([1]; PAO1, antibiotic alone, WT PAO1 (Table 2), read-out: MIC alone): 2 µg/mL; FICAntibiotic ([4]; with compound 2): 0.500; MICCombination (antibiotic) [10, 12]: 4 µg/mL; FICI ([10]; antibiotic + compound 2): <0.31; MICAntibiotic ([10]; antibiotic alone): 16 µg/mL; FICAntibiotic ([10]; with compound 2): 0.250; FICAntibiotic [5]: 0.250; MICCombination (antibiotic) [6]: 512 µg/mL; FICI [6]: <0.50; MICAntibiotic [6]: 1024 µg/mL; FICAntibiotic [6]: 0.500; MICCombination (antibiotic) [11, 12]: 1 µg/mL; FICI ([11]; antibiotic + compound 2): <0.19; MICAntibiotic ([11]; antibiotic alone): 8 µg/mL; resistant isolates reaching CLSI clinical breakpoint [7]: three out of six; survival of larvae [8]: 100%
